The text below walks through data of PubChem BioAssay (NCI).

“And” between values parts separate entries of the source, which are not always exact repeats. Identical values can stand only once.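 Where inhibition never reached the appropriate level, the endpoint shown equals the highest concentration tested. Otherwise, values were interpolated linearly from a five-concentration, 48-hour dose response in 96-well plates. At the GI50, growth is halved. TGI marks complete inhibition of growth.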

Test systems include HS 578T breast; PC-3 prostate; SW-620 colon; RXF 393 renal; SF-295 CNS; K-562 leukemia; DU-145 prostate; OVCAR-4 ovarian; BT-549 breast; UO-31 renal.
Common to all, as to assay: NCI tumour cell line growth inhibition, 48 h

Regarding `Nc1cccc(-c2cc(=O)c3cc4c(cc3[nH]2)OCO4)c1`, the TGI in the test with HS 578T breast was 6.56 µM; with PC-3 prostate it was 13 µM; in the test on SW-620 colon it was over 100 µM; in the test on RXF 393 renal it was over 100 µM; in the test with SF-295 CNS, over 26.4 µM; in the test on K-562 leukemia, over 100 µM. For the same compound, the TGI is over 100 µM with DU-145 prostate, over 100 µM in the test on OVCAR-4 ovarian, over 100 µM with BT-549 breast and over 75.9 µM with UO-31 renal.
In the case of `CN(CCN)[C@H](CSSC[C@@H](c1ccccc1O)N(C)CCN)c1ccccc1O`, the TGI in the test on HS 578T breast was 49.9 µM; with PC-3 prostate, 30.2 µM; in the test on SW-620 colon, over 57.3 µM; with RXF 393 renal it was 43.7 µM; with SF-295 CNS, 20.4 µM; in the test on K-562 leukemia, 24.3 µM. The TGI worked out at 33.1 µM with DU-145 prostate, 34 µM with OVCAR-4 ovarian, 25 µM with BT-549 breast and 23.9 µM in the test on UO-31 renal.
Turning to `Cc1ccc(C2=CC(=O)/C(=C\C(=O)c3ccc(Br)cc3)O2)c(C)c1`, the TGI was 61.8 µM in the test with HS 578T breast; 11.6 µM in the test with PC-3 prostate; 14.1 µM in the test with RXF 393 renal; over 54.2 µM in the test with SF-295 CNS; 16.4 µM in the test on K-562 leukemia; over 69.5 µM with DU-145 prostate. Further, the TGI in the test with OVCAR-4 ovarian was 23.9 µM; with BT-549 breast, 16.2 µM; in the test on UO-31 renal, 27.7 µM.
On to `NCCCN(CCCCN(CCCN)CCCc1ccccc1)CCCc1ccccc1`, for which the TGI stood at 4.66 µM with HS 578T breast; 12.3 µM in the test on PC-3 prostate; 10.6 µM in the test with SW-620 colon; 5.64 µM with RXF 393 renal; 3.16 µM in the test with SF-295 CNS; 3.57 µM with K-562 leukemia. Further, the TGI in the test on DU-145 prostate turned out to be 23.8 µM; in the test on OVCAR-4 ovarian, 17.1 µM; with BT-549 breast, 10.1 µM; in the test with UO-31 renal it was 5.66 µM.
Turning to `CC(=O)Oc1ccc2cc(Oc3cc(Cl)c(Cl)cc3Cl)c(=O)oc2c1`, the TGI in the test on HS 578T breast came to 65 µM; with PC-3 prostate it was 33 µM; in the test with SW-620 colon, 28 µM; in the test with RXF 393 renal, 31.5 µM; with SF-295 CNS it was 45.7 µM; in the test with K-562 leukemia it was 25.9 µM. Besides, the TGI was over 100 µM with DU-145 prostate, over 100 µM in the test on OVCAR-4 ovarian, 26.7 µM in the test with BT-549 breast and 25.9 µM in the test with UO-31 renal.
On to `CCCC(=O)Nc1cc(C(=O)N2C[C@H]3C[C@@]34C2=CC(=O)c2[nH]cc(C)c24)n(COC)c1`, for which the GI50 with HS 578T breast is 0.267 µM; in the test with PC-3 prostate it was 0.147 µM; in the test on SW-620 colon, 0.184 µM; in the test on RXF 393 renal, 0.106 µM; in the test with SF-295 CNS, 0.229 µM; in the test with K-562 leukemia it was 0.0925 µM. Also, the GI50 in the test on DU-145 prostate is 0.0776 µM; with OVCAR-4 ovarian, 0.239 µM; in the test on BT-549 breast, 0.159 µM; with UO-31 renal, 0.561 µM. In addition, the TGI with HS 578T breast is 2.88 µM and 0.989 µM; in the test with SW-620 colon, 82.2 µM; with K-562 leukemia it was 50 µM and 18.8 µM; in the test on OVCAR-4 ovarian, 4.76 µM and 0.626 µM; with UO-31 renal it was 3.64 µM.
As for `COc1cccc(NC(=O)CC(=O)NN)c1`, the TGI in the test on HS 578T breast, in the test with PC-3 prostate, with SW-620 colon, in the test with RXF 393 renal, with SF-295 CNS and with K-562 leukemia was over 100 µM in each case. Moreover, the TGI in the test with DU-145 prostate, in the test with OVCAR-4 ovarian, with BT-549 breast and in the test on UO-31 renal was over 100 µM throughout.
For the compound `CCOC(=O)Cc1c(C(=O)OCC)[n+](=O)c2cc(Cl)c(Cl)cc2n1[O-]`, the TGI in the test with HS 578T breast turned out to be 6.46 µM; in the test with PC-3 prostate, 4.69 µM; in the test with SW-620 colon it was 4.08 µM; with RXF 393 renal, 4.91 µM; with SF-295 CNS, 13.5 µM; in the test with K-562 leukemia, 5.65 µM. Besides, the TGI in the test on DU-145 prostate was 3.68 µM; in the test on OVCAR-4 ovarian it was 3.51 µM; in the test with BT-549 breast, 6.53 µM; in the test with UO-31 renal, 3.36 µM.
In the case of `CCN(CC)c1c(C(C)(C)C)c(=O)n2ccsc2c1OC(C)=O`, the TGI with HS 578T breast was 42.8 µM; in the test with PC-3 prostate, 23.6 µM; with SW-620 colon it was 30.6 µM; in the test with RXF 393 renal, 30.7 µM; with SF-295 CNS, 30.7 µM; in the test with K-562 leukemia, over 100 µM. Also, the TGI is 38.7 µM in the test with DU-145 prostate, 28.9 µM in the test with OVCAR-4 ovarian, 30.3 µM in the test with BT-549 breast and 31.7 µM in the test on UO-31 renal.
`Cc1nn2c(=O)c([N+](=O)[O-])c(/C=C/c3ccc(F)cc3)nc2s1`: the TGI in the test on HS 578T breast was 28.6 µM; with PC-3 prostate, 22 µM; in the test with SW-620 colon it was 19.3 µM; in the test with RXF 393 renal it was 10.7 µM; in the test on SF-295 CNS, 22.8 µM; in the test on K-562 leukemia it was over 31.6 µM. Also, the TGI with DU-145 prostate is over 31.6 µM; in the test with OVCAR-4 ovarian, 19.5 µM; in the test with BT-549 breast, 18.8 µM; in the test on UO-31 renal it was 16.2 µM.
`c1ccc(C(Oc2noc3ccccc23)c2ccccc2)cc1`: the TGI is over 100 µM in the test on HS 578T breast; over 100 µM in the test on PC-3 prostate; over 100 µM with SW-620 colon; 35.9 µM in the test on RXF 393 renal; over 100 µM in the test with SF-295 CNS; over 100 µM with K-562 leukemia. The TGI in the test with DU-145 prostate was 78.6 µM; in the test with OVCAR-4 ovarian, over 100 µM; in the test with BT-549 breast, 96.4 µM; in the test on UO-31 renal, over 100 µM.
Consider `CO[C@@]12C[C@H](CNC(=O)c3ccc[nH]3)O[C@@H]1NC(=O)N2`, for which the TGI in the test with HS 578T breast, with PC-3 prostate, with SW-620 colon, in the test on SF-295 CNS, with K-562 leukemia and with DU-145 prostate was over 100 µM each time. Further, the TGI in the test with OVCAR-4 ovarian, in the test on BT-549 breast and with UO-31 renal was over 100 µM each time.
Regarding `CC(C)(C)OC(=O)Cn1ncn(NC(=O)Cc2ccccc2)c1=S`, the TGI in the test with HS 578T breast, in the test with PC-3 prostate, in the test on SW-620 colon, in the test with SF-295 CNS, with K-562 leukemia and with DU-145 prostate was over 10 µM each time. Also, the TGI with OVCAR-4 ovarian, in the test on BT-549 breast and with UO-31 renal was over 10 µM throughout.
